{
  "source": "ChEMBL document CHEMBL4706734",
  "about": "“Novel Hexahydropyrimidine Compounds for Treating Malaria” (ACS Med Chem Lett, 2021)",
  "test_system": "Plasmodium falciparum",
  "assay": "Antimalarial activity against asexual blood stage of Plasmodium falciparum 3D7 infected in human erythrocytes assessed as inhibition of parasite growth and propagation incubated for 72 hrs by SYBR green dye based fluorescence assay",
  "format": "functional, organism-based",
  "settings": "3D7, Erythrocyte",
  "note": "pIC50: −log10 of the molar value.",
  "data": [
    {"smiles": "C[C@@H]1C[C@H](N2C(=N)N[C@](C)(c3cccc(NC(=O)c4cc(C#N)cn4C)c3Cl)CC2=O)CCO1", "values": [
      {"measurement": "pIC50", "value": 8.30}
    ]},
    {"smiles": "C[C@@H]1C[C@H](N2C(=N)N[C@](C)(c3cccc(NC(=O)c4cccc(C#N)c4F)c3Cl)CC2=O)CCO1", "values": [
      {"measurement": "pIC50", "value": 8.22}
    ]},
    {"smiles": "Cc1cc(Cl)cc(C(=O)Nc2cccc([C@]3(C)CC(=O)N([C@@H]4CCO[C@H](C)C4)C(=N)N3)c2Cl)c1", "values": [
      {"measurement": "pIC50", "value": 8.05}
    ]},
    {"smiles": "C[C@@H]1C[C@H](N2C(=N)N[C@](C)(c3cccc(NC(=O)c4cccc(C#N)c4)c3Cl)CC2=O)CCO1", "values": [
      {"measurement": "pIC50", "value": 8.10}
    ]},
    {"smiles": "C[C@@H]1C[C@H](N2C(=N)N[C@](C)(c3cccc(NC(=O)c4cc(Cl)cc(C#N)c4)c3Cl)CC2=O)CCO1", "values": [
      {"measurement": "pIC50", "value": 8.15}
    ]},
    {"smiles": "C[C@@H]1C[C@H](N2C(=N)N[C@](C)(c3cccc(NC(=O)c4cccc(Cl)c4)c3Cl)CC2=O)CCO1", "values": [
      {"measurement": "pIC50", "value": 8.05}
    ]}
  ]
}
